Experimental data taken from US20120315254A1, “METHODS AND COMPOSITIONS FOR ENHANCING FAT GRAFT SURVIVAL” (Sebana Medical Ltd., priority 2010, published 2012).

What was measured:
[1] = tested on: human umbilical vein endothelial cells (HUVECs); experiment: HUVEC proliferation ([3H]-thymidine incorporation); format: cell-based; settings: inhibitor exposure for 3 hours, without EPO
Experimental: To investigate EPO-induced angiogenesis through mechanisms involving pro-angiogenic factors, the present inventor measured the proliferation of EPO-treated HUVECs in the presence of various pro-angiogenic factor inhibitors. To this end, HUVECs (2×10^5 cells/well) were cultured on fibronectin-coated 12-well plates in EBM-2. The cultured HUVECs were treated with or without 100 IU/ml EPO for 48 hours, and then exposed for 3 hours to (a) 0.25 mg/ml bevacizumab, (b) 100 nM of PD173074; an inhibitor of bFGF (Calbiochem, San Diego, Calif.), (c) 20 μM of tyrphostin AG 1296; a selective inhibitor of PDGF (Sigma), (d) a combination of bevacizumab, PD173074 and tyrphostin, and to (e) 100 nM wortmannin; a phosphatidylinositol 3-kinaz (PI 3-K) inhibitor (Sigma). Upon the completion of the experiment, the cells were washed with PBS and then incubated with 1 μCi/ml medium [^3H]-thymidine (NEN, Boston, Mass., USA) for 5 h at 37° C. Thereafter, 0.5 ml cold 10% Trichloroacetic acid (TCA) was added into each well for another 30 min at 4° C. To extract the ^3H-thymidine labeled DNA, 0.5 ml 1N NaOH was added to each well for 10 min at room temperature, and then 0.5 ml 1N HCl was added and mixed well. Samples of mixture solution (0.5 ml) was taken from each well and added to scintillation vials for the measurement of [^3H]-thymidine incorporation to DNA (cpm/mg protein). Duplicate cell counts were averaged for 3 experiments. Data were expressed as the percentage of control.

[2] = tested on: human umbilical vein endothelial cells (HUVECs); experiment: In vitro tube formation of HUVECs on matrigel; format: cell-based
Experimental: The in vitro angiogenic potential of VEGF and EPO was measured by assessment of their ability to form tubes of endothelial cells on matrigel. To this end, human umbilical vein endothelial cells (HUVECs, LONZA, USA) were first cultured on fibronectin-coated 6-well plates in endothelial basal medium-2 (EBM-2, PromoCell, USA) until confluence and then the cells were treated with 0, 20 or 100 IU/ml EPO for 48 hours before their use in the assay (FIG. 7A). In a second experiment (FIG. 7B), HUVECs were exposed to 0, 100 IU/ml EPO or 200 ng/ml VEGF for 48 hours in EBM-2 with or without 0.25 mg/ml bevacizumab (Avastin®, Genentech, San Francisco, Calif., USA), a humanized monoclonal antibody that antagonizes the actions of VEGF. After 48 hours, the untreated HUVECs, the VEGF- and EPO-treated HUVECs, and the VEGF+bevacizumab- and EPO+bevacizumab-treated HUVECs were detached gently by 0.5% trypsin/EDTA, and then suspended in EBM-2. At the same time, frozen matrigel (Sigma Aldrich, St Louis Mo., USA) was thawed, and spread onto 96-well plates ([…]) at room temperature for 30 minutes to allow solidification. […] After 24 hours, the non-integrated cells were removed by washing and tube formation on the matrigel was assessed under a light microscope at 10× magnification. […]

human fat grafts [3] = experiment: Histological analysis of the dissected fat grafts (grades 0 to 5); format: in vivo, CD-1 nude mice; settings: grade on a scale of 0 to 5; VEGF 200 ng/100 μl PBS; week 15
Experimental: The first study comprised 30 seven-week-old female CD-1 nude mice (Harlan, Jerusalem, Israel). These mice were housed in cages in a room with an artificial 12-h light/dark cycle at a constant temperature range (24±2° C.) and relative humidity (55±10%). The mice were acclimated for one week prior to the study, and fed a standard laboratory chow and water ad libitum. The 30 mice were randomly divided into three equal groups and treated as follows: Group 1 mice were injected with 1 ml of human fat and were treated with sterile PBS (control group). Group 2 mice were injected with 1 ml human fat and were treated with 1000 IU/kg EPO (low-dose EPO group). Group 3 mice were injected with 1 ml human fat and were treated with 5000 IU/kg EPO (high-dose EPO group). The fat was injected subcutaneously into the scalp using a 14G needle while the animals were manually restrained. Immediately following fat transplantation, the PBS-treated fat grafts were injected with 100 μl PBS (control group), and the EPO-treated fat grafts were injected with either 20 IU EPO/100 μl PBS (low-dose EPO group) or 100 IU EPO/100 μl PBS (high-dose EPO group) every three days for 18 days (a total of 6 injections). EPO was purchased as an injection ampoule (ARANESP®, Amgen AG, Zug, Switzerland) which contained 150 μg/ml (18,000 IU) of EPO.
The second animal study comprised 20 seven-week-old female CD-1 nude mice, and differed from the first study in that the fat was treated with VEGF (2 μg/ml, Sigma Aldrich, Mo., USA) following implantation. 10 mice were injected with fat followed by 200 ng VEGF/100 μl PBS injections every three days for a total of 18 days. The remaining 10 mice made up a second control group that was treated in an identical manner to the control group in the first study. Post-operative analgesics and antibiotics were not administered to the mice in the two experiments.
(§1) Histological slides of the formalin-maintained samples were prepared and then stained with hematoxylin and eosin using standard procedures. Immunohistochemistry was performed using rabbit monoclonal antibodies against tissue CD31, VEGFR-2 and EPOR, and goat polyclonal IgG against VEGF (R&D Systems, Minneapolis Minn., USA), and CD68 (Dako, Glostrup, Denmark). The paraffin-embedded fat graft sections were incubated with the antibodies overnight at room temperature followed by incubation with appropriate secondary antibodies [Li et al. (2005) J Cell Biochem 95: 559-570]. Upon completion of the incubations, the specimens were counterstained with hematoxylin. Mouse IgG was used as a negative control. […]

[4] = tested on: bFGF, IGF-1, PDGF-BB, VEGFR-2, EPOR, MMP-2, PKB, phosphoPKB, caspase 3, cytochrome c; experiment: Expression of angiogenic, survival and pro-apoptotic factors in fat grafts (Western blotting, immunohistochemistry); format: in vivo, CD-1 nude mice; settings: VEGF-treated vs PBS-treated fat grafts, Western blot; week 15
Experimental: as §1
The expression levels of the angiogenic factors, bFGF, IGF-1, PDGF-BB VEGFR-2, EPOR and MMP-2, the cell survival factor PKB and phosphorylated PKB, and the pro-apoptotic factors caspase 3 and cytochrome c were determined in homogenates of the harvested fats grafts by Western blotting. […] The resultant bands were quantified by densitometry.

human fat grafts [5] = experiment: Fat graft weight and volume 15 weeks after transplantation; format: in vivo, CD-1 nude mice; settings: VEGF 200 ng/100 μl PBS every three days for 18 days; week 15; second experiment
Text: Fat was harvested from the thigh of a person by suction-assisted lipectomy under […] anesthesia. The fat was aspirated under local anesthesia using a 14-gauge blunt cannula, and then processed under sterile conditions for subsequent grafting into nude mice within two hours of its collection according to previously published protocols [Ullmann et al. (2005) Dermatol Surg 31:1304-7; Kurita et al. (2008) Plast Reconstr Surg 121:1033-1041].
(§2) The first study comprised 30 seven-week-old female CD-1 nude mice (Harlan, Jerusalem, Israel). These mice were housed in cages in a room with an artificial 12-h light/dark cycle at a constant temperature range (24±2° C.) and relative humidity (55±10%). The mice were acclimated for one week prior to the study, and fed a standard laboratory chow and water ad libitum. The 30 mice were randomly divided into three equal groups and treated as follows: Group 1 mice were injected with 1 ml of human fat and were treated with sterile PBS (control group). Group 2 mice were injected with 1 ml human fat and were treated with 1000 IU/kg EPO (low-dose EPO group). […]
(§3) After 15 weeks, all mice were humanely killed and the fat grafts were carefully dissected from their scalps (FIG. 1C). Each fat graft was weighed and the volume of the fat graft was measured by the liquid overflow method as previously described [Ayhan et al. (2001) Aesthetic Plast Surg 25:338-342]. […]

human fat grafts [6] = experiment: Extent of apoptosis in fat grafts (TUNEL assay); format: in vivo, CD-1 nude mice; settings: VEGF-treated (200 ng/100 μl PBS) vs PBS-treated fat grafts; week 15
Experimental: The extent of apoptosis in all fat grafts was assessed by the terminal deoxyuridine triphosphate nick end labeling (TUNEL) assay using a commercial kit (ApopTag® Plus Fluorescein Kit, CHEMICON, CA, USA), in accordance with the manufacturer's instructions. Duplicates were carried out for each sample and were processed by fluorescence-activated cell sorting (FACS, Becton Dickinson, N.J., USA). Data was analyzed using the Macintosh CELLQuest software program (Becton Dickinson).

[7] = tested on: CD31-positive endothelial cells; experiment: Microvascular density (MVD, CD31) in fat grafts; format: in vivo, CD-1 nude mice
Experimental: Quantification of macrophage infiltration in the fat grafts was estimated by counting the number of CD68-positive cells in five fields per fat graft in all fat graft sections. Microvascular density (MVD) in fat grafts was determined in five regions of interest where the CD31 antibody signal was the most intense in each section in all of the fat graft sections. The number of macrophages and blood vessels in each region was counted under a light microscope at 400× magnification. The assessment in each fat graft was made by calculating the mean result in two different sections per fat graft and five different fields of view per section.
The paraffin-embedded fat graft sections were incubated overnight at room temperature with a monoclonal antibody against tissue CD31 (R&D Systems, Minneapolis Minn., USA) as previously described [Li et al. (2005) J Cell Biochem 95:559-570]. Upon completion of the incubation, the specimens were counterstained with hematoxylin. Mouse IgG was used as a negative control. The microvascular density (MVD) was determined in five regions of interest where the CD31 antibody signal was most intense. The number of blood vessels in each region was counted under a light microscope at […] magnification.

VEGF = experiment: Plasma VEGF concentration and fat graft VEGF content (ELISA); format: in vivo, CD-1 nude mice; settings: VEGF-treated (200 ng/100 μl PBS) vs PBS-treated fat grafts; week 15
Experimental: as §2
The duration of the study period of both experiments was 15 weeks from the start of fat transplantation. […] VEGF and EPO concentrations were determined in homogenates of samples of the fat grafts using commercial enzyme-linked immunosorbent assays (Quantikine® VEGF immunoassay Kit and Quantikine® WD® Erythropoietin Kit, R&D Systems, MN, USA) in accordance with the manufacturer's instructions.
as §3

tyrphostin AG 1296
HUVEC proliferation [1]: reduced HUVEC proliferation significantly

bevacizumab [reference compound]
HUVEC proliferation [1]: reduced HUVEC proliferation significantly | HUVEC tube formation ([2]; 0.25 mg/ml bevacizumab in VEGF-treated HUVECs): substantially reduced

CCN(CC)CCCCNc1ncc2cc(-c3cc(OC)cc(OC)c3)c(NC(=O)NC(C)(C)C)nc2n1 [PD173074]
HUVEC proliferation [1]: reduced HUVEC proliferation significantly

vascular endothelial growth factor [VEGF]
Cyst/Vacuoles (human fat grafts [3]): 3.3 ± 1.0 | Fibrosis (human fat grafts [3]): 2.9 ± 0.7 | Inflammation (human fat grafts [3]): 4.0 ± 1.2 | Integration (human fat grafts [3]): 3.2 ± 0.9 | expression levels of caspase 3 and cytochrome c [4]: no statistical differences | fat graft Volume (human fat grafts [5]): 0.36 ± 0.2 mL | fat graft Weight (human fat grafts [5]): 0.35 ± 0.2 g | extent of apoptosis (TUNEL) (human fat grafts [6]): greater than that in the PBS-treated fat grafts | microvascular density (MVD) ([7]; VEGF-treated (200 ng/100 μl PBS) vs PBS-treated fat grafts, week 15): higher than, but not statistically different from | vessel morphology in fat grafts ([7]; VEGF-treated fat grafts (data not shown)): unorganized vessel formation and perivascular hemorrhage | VEGF content in fat grafts (VEGF): higher than, but not statistically different from | HUVEC tube formation ([2]; 200 ng/ml VEGF, without bevacizumab (FIG. 7B)): significantly enhanced
